The NIST ThermoML archive (doi:10.1016/j.jct.2016.05.005)
Numbers after ± are expanded uncertainties.

Columns and labels:
[1] = Crystal; DTA
[2] = Molar enthalpy of transition or fusion; conditions: Crystal; DSC

For `COC(=O)N(OC)c1ccccc1COc1ccn(-c2ccc(Cl)cc2)n1` [Pyraclostrobin], the Normal melting temperature [1] was 60.6 ± 0.6 °C and the “Molar enthalpy of transition or fusion” value [2] was 7.42 ± 0.311 kcal/mol.
